Data: the NIST ThermoML archive (doi:10.1016/j.jct.2012.06.030)

Experiment: excess molar enthalpy (molar enthalpy of mixing); xn = mol fraction of the nth substance listed
Details: 101 kPa, Liquid, isothermal titration calorimeter

CCCCCC[n+]1ccc2ccccc2c1.N#C[S-] [2-hexylisoquinolinium thiocyanate] + O
Details | excess molar enthalpy [kcal/mol]
298.15 K, x1 = 0.0916 | 0.0327
298.15 K, x1 = 0.0938 | 0.0335
298.15 K, x1 = 0.0961 | 0.0344
298.15 K, x1 = 0.0985 | 0.0351
298.15 K, x1 = 0.101 | 0.0361
298.15 K, x1 = 0.1036 | 0.0368
298.15 K, x1 = 0.1064 | 0.0378
298.15 K, x1 = 0.1093 | 0.0387
298.15 K, x1 = 0.1125 | 0.0399
298.15 K, x1 = 0.1157 | 0.0409
298.15 K, x1 = 0.1192 | 0.0421
298.15 K, x1 = 0.1229 | 0.0435
298.15 K, x1 = 0.1264 | 0.0445
298.15 K, x1 = 0.1301 | 0.0459
298.15 K, x1 = 0.134 | 0.0471
298.15 K, x1 = 0.1381 | 0.0485
298.15 K, x1 = 0.1426 | 0.0502
298.15 K, x1 = 0.1473 | 0.0516
298.15 K, x1 = 0.1523 | 0.0533
298.15 K, x1 = 0.1577 | 0.0552
298.15 K, x1 = 0.1635 | 0.0571
298.15 K, x1 = 0.1697 | 0.0593
298.15 K, x1 = 0.1764 | 0.0617
298.15 K, x1 = 0.1836 | 0.0641
298.15 K, x1 = 0.1915 | 0.0667
298.15 K, x1 = 0.2001 | 0.0696
298.15 K, x1 = 0.2095 | 0.0727
298.15 K, x1 = 0.2198 | 0.076
298.15 K, x1 = 0.2312 | 0.0798
298.15 K, x1 = 0.2439 | 0.0834
298.15 K, x1 = 0.258 | 0.0846
298.15 K, x1 = 0.2738 | 0.0832
298.15 K, x1 = 0.2917 | 0.077
298.15 K, x1 = 0.3095 | 0.0691
298.15 K, x1 = 0.3296 | 0.0581
298.15 K, x1 = 0.3525 | 0.0449
298.15 K, x1 = 0.3749 | 0.0325
298.15 K, x1 = 0.4002 | 0.0189
298.15 K, x1 = 0.424 | 0.00672
298.15 K, x1 = 0.4509 | -0.00614
298.15 K, x1 = 0.4749 | -0.0166
298.15 K, x1 = 0.5016 | -0.027
298.15 K, x1 = 0.5315 | -0.037
298.15 K, x1 = 0.5562 | -0.044
298.15 K, x1 = 0.5833 | -0.05
298.15 K, x1 = 0.6133 | -0.055
298.15 K, x1 = 0.6464 | -0.0586
298.15 K, x1 = 0.6834 | -0.0602
298.15 K, x1 = 0.7102 | -0.0598
298.15 K, x1 = 0.7393 | -0.0583
298.15 K, x1 = 0.7708 | -0.0552
298.15 K, x1 = 0.8051 | -0.0502
298.15 K, x1 = 0.8229 | -0.0471
298.15 K, x1 = 0.8415 | -0.0435
298.15 K, x1 = 0.861 | -0.039
298.15 K, x1 = 0.8815 | -0.0342
298.15 K, x1 = 0.9029 | -0.0287
298.15 K, x1 = 0.9253 | -0.0225
298.15 K, x1 = 0.949 | -0.0156
298.15 K, x1 = 0.9738 | -0.00798
303.15 K, x1 = 0.0899 | 0.0318
303.15 K, x1 = 0.092 | 0.0325
303.15 K, x1 = 0.0942 | 0.0332
303.15 K, x1 = 0.0965 | 0.0339
303.15 K, x1 = 0.099 | 0.0347
303.15 K, x1 = 0.1016 | 0.0356
303.15 K, x1 = 0.1043 | 0.0366
303.15 K, x1 = 0.1071 | 0.0373
303.15 K, x1 = 0.1102 | 0.0385
303.15 K, x1 = 0.1134 | 0.0394
303.15 K, x1 = 0.1168 | 0.0406
303.15 K, x1 = 0.1204 | 0.0418
303.15 K, x1 = 0.1238 | 0.0428
303.15 K, x1 = 0.1274 | 0.044
303.15 K, x1 = 0.1312 | 0.0452
303.15 K, x1 = 0.1352 | 0.0466
303.15 K, x1 = 0.1395 | 0.048
303.15 K, x1 = 0.1441 | 0.0495
303.15 K, x1 = 0.1489 | 0.0511
303.15 K, x1 = 0.1542 | 0.0528
303.15 K, x1 = 0.1598 | 0.0547
303.15 K, x1 = 0.1658 | 0.0566
303.15 K, x1 = 0.1723 | 0.0588
303.15 K, x1 = 0.1793 | 0.0612
303.15 K, x1 = 0.187 | 0.0636
303.15 K, x1 = 0.1953 | 0.0664
303.15 K, x1 = 0.2044 | 0.0693
303.15 K, x1 = 0.2144 | 0.0727
303.15 K, x1 = 0.2254 | 0.0748
303.15 K, x1 = 0.2375 | 0.0779
303.15 K, x1 = 0.2511 | 0.0803
303.15 K, x1 = 0.2663 | 0.0805
303.15 K, x1 = 0.2835 | 0.0772
303.15 K, x1 = 0.3031 | 0.071
303.15 K, x1 = 0.3255 | 0.0609
303.15 K, x1 = 0.3483 | 0.048
303.15 K, x1 = 0.3744 | 0.032
303.15 K, x1 = 0.4001 | 0.0169
303.15 K, x1 = 0.4295 | 0.000844
303.15 K, x1 = 0.4576 | -0.0129
303.15 K, x1 = 0.4895 | -0.0268
303.15 K, x1 = 0.5184 | -0.0375
303.15 K, x1 = 0.5509 | -0.0473
303.15 K, x1 = 0.578 | -0.054
303.15 K, x1 = 0.6079 | -0.0595
303.15 K, x1 = 0.641 | -0.0638
303.15 K, x1 = 0.6779 | -0.066
303.15 K, x1 = 0.7193 | -0.0655
303.15 K, x1 = 0.7496 | -0.0636
303.15 K, x1 = 0.7826 | -0.0598
303.15 K, x1 = 0.8185 | -0.054
303.15 K, x1 = 0.858 | -0.0464
303.15 K, x1 = 0.872 | -0.0421
303.15 K, x1 = 0.8864 | -0.037
303.15 K, x1 = 0.9014 | -0.0318
303.15 K, x1 = 0.9168 | -0.027
303.15 K, x1 = 0.9328 | -0.0221
303.15 K, x1 = 0.9494 | -0.0165
303.15 K, x1 = 0.9666 | -0.0104
303.15 K, x1 = 0.9844 | -0.00416
308.15 K, x1 = 0.0931 | 0.0332
308.15 K, x1 = 0.0953 | 0.0339
308.15 K, x1 = 0.0976 | 0.0347
308.15 K, x1 = 0.1 | 0.0355
308.15 K, x1 = 0.1025 | 0.0363
308.15 K, x1 = 0.1052 | 0.0372
308.15 K, x1 = 0.1081 | 0.0381
308.15 K, x1 = 0.111 | 0.0391
308.15 K, x1 = 0.1142 | 0.0401
308.15 K, x1 = 0.1175 | 0.0412
308.15 K, x1 = 0.1211 | 0.0423
308.15 K, x1 = 0.1248 | 0.0436
308.15 K, x1 = 0.1284 | 0.0447
308.15 K, x1 = 0.1321 | 0.0459
308.15 K, x1 = 0.1361 | 0.0473
308.15 K, x1 = 0.1403 | 0.0486
308.15 K, x1 = 0.1448 | 0.0501
308.15 K, x1 = 0.1496 | 0.0516
308.15 K, x1 = 0.1547 | 0.0533
308.15 K, x1 = 0.1602 | 0.0551
308.15 K, x1 = 0.166 | 0.057
308.15 K, x1 = 0.1723 | 0.0589
308.15 K, x1 = 0.1792 | 0.0612
308.15 K, x1 = 0.1865 | 0.0636
308.15 K, x1 = 0.1945 | 0.0661
308.15 K, x1 = 0.2033 | 0.069
308.15 K, x1 = 0.2128 | 0.0718
308.15 K, x1 = 0.2233 | 0.0744
308.15 K, x1 = 0.2349 | 0.076
308.15 K, x1 = 0.2478 | 0.0778
308.15 K, x1 = 0.2621 | 0.0795
308.15 K, x1 = 0.2782 | 0.0785
308.15 K, x1 = 0.2941 | 0.0754
308.15 K, x1 = 0.3119 | 0.0706
308.15 K, x1 = 0.332 | 0.063
308.15 K, x1 = 0.3549 | 0.0511
308.15 K, x1 = 0.3772 | 0.0372
308.15 K, x1 = 0.4025 | 0.0214
308.15 K, x1 = 0.4262 | 0.00743
308.15 K, x1 = 0.4529 | -0.00703
308.15 K, x1 = 0.4767 | -0.0189
308.15 K, x1 = 0.5032 | -0.0306
308.15 K, x1 = 0.5328 | -0.0421
308.15 K, x1 = 0.5573 | -0.05
308.15 K, x1 = 0.5841 | -0.0571
308.15 K, x1 = 0.6137 | -0.0629
308.15 K, x1 = 0.6464 | -0.0672
308.15 K, x1 = 0.6827 | -0.0693
308.15 K, x1 = 0.7091 | -0.0693
308.15 K, x1 = 0.7376 | -0.0674
308.15 K, x1 = 0.7685 | -0.0641
308.15 K, x1 = 0.802 | -0.059
308.15 K, x1 = 0.8213 | -0.0557
308.15 K, x1 = 0.8416 | -0.0519
308.15 K, x1 = 0.8628 | -0.0471
308.15 K, x1 = 0.883 | -0.0418
308.15 K, x1 = 0.9042 | -0.0356
308.15 K, x1 = 0.9264 | -0.0289
308.15 K, x1 = 0.9497 | -0.0213
308.15 K, x1 = 0.9742 | -0.0116
